Assay results from patent US7232829B2, “Therapeutic compounds and methods” (Regents of the University of Minnesota, priority 2001, dated 2007).
Where two headings read alike, the source gives them in different places.

Legend:
[1] = system: mu opioid receptor; assay: Antagonism of morphine (M) in the electrically stimulated guinea-pig ileal longitudinal muscle (GPI) preparation; assay type: cell-based; conditions: for M (μ) Ke: GPI preparation, agonist morphine, Ke derived from IC50 ratio; for M (μ) IC50 ratio: GPI, antagonist tested at 100 nM, mean ± SEM (n); for mu opioid receptor antagonist activity (in words): smooth muscle preparations
Protocol: (§1) Smooth Muscle Preparations. […] All of the compounds were tested on the electrically stimulated guinea-pig ileal longitudinal muscle (GPI), see Rang, H. P. Stimulant Actions of Volatile Anaesthetics on Smooth Muscle. Br. J. Pharmacol. 1964, 22, 356–365, and the mouse vas-deferens (MVD), see Henderson, G.; Hughes, J.; Kosterlitz, H. W. A New Example of a Morphine-Sensitive Neuroeffector Junction: Adrenergic Transmission in the Mouse vas Deferens. Br. J. Pharmacol. 1972, 46, 764–766, preparations for their agonist and antagonist activities as previously described, see (a) Portoghese, P. S.; Lipkowski, A. W.; Takemori, A. E. Binaltorphimine and Nor-binaltorphimine, Potent and Selective Kappa-Opioid Receptor Antagonists. Life Sci. 1987, 40, 1287–1292. (b) Portoghese, P. S.; Takemori, A. E. TENA. A Selective Kappa Opioid Receptor Antagonist. Life Sci. 1985, 36, 801–805. […] Morphine (M), (−)-ethylketazocine (EK), and [D-Ala^2,D-Leu^5]enkephalin (DADLE) were employed as mu, kappa and delta selective agonists, respectively. Morphine and EK were used in the GPI, and DADLE was employed in the MVD studies. Concentration-response curves were obtained in the absence (control) and presence of the antagonist in the same preparation. Antagonist potency is expressed as an IC50 ratio, that is the IC50 of the agonist in the presence of antagonist divided by the control IC50 of the agonist in the same preparation, and as a Ke value derived from the relationship, Ke=[antagonist]/[…].

[2] = target: T1, kappa opioid receptor (Cavia porcellus, UniProt P41144); assay: Antagonism of ethylketazocine (EK) in the electrically stimulated guinea-pig ileal longitudinal muscle (GPI) preparation; assay type: cell-based; conditions: for EK (κ) IC50 ratio: GPI, antagonist tested at 100 nM, mean (n)
T1 construct: tested on the electrically stimulated guinea-pig ileal longitudinal muscle (GPI); from tissue; host or cells: guinea-pig ileal longitudinal muscle
Protocol: as §1

[3] = target: T2, mouse delta-opioid receptor (Mus musculus, UniProt P32300); assay: [3H]diprenorphine binding on transiently transfected HEK-293 cells, delta; conditions: for Ki: [3H]diprenorphine, HEK-293 cells, mouse delta receptor, read-out: Ki δ; for binding to delta receptor (in words): cloned receptors, HEK-293
T2 construct: expressed in transfected cells; host or cells: HEK-293 (transient, calcium phosphate)
Protocol: (§2) Receptor Binding. HEK-293 in DMEM (Gibco, BRL) supplemented with 10% Bovine Calf Serum (Hyclone) and 1% penicillin/streptomycin (Gibco, BRL) were maintained at 37° C. and in 5% CO2. Cells were seeded at 16% for 24 hours prior to transfection. Fresh media was added 2 hours prior to transfection. Cells were transfected with plasmid DNA (20 μg/100 mm plate) of either wild type or mutant receptor cDNA using the calcium phosphate precipitation method, see Chen, C.; Okayama, H. High Efficiency Transformation of Mammalian Cells by Plasmid DNA. Mol. Cell. Bio. 1987, 7, 2745–2752. Media was changed 5 hours after transfection. Transfected cells were harvested 48–72 hours after transfection for binding studies.
(§3) Sixty to 72 hours after transfection, HEK cells were washed three times with 25 mM HEPES buffer (pH 7.4) and were resuspended with 8–12 mL of 25 mM HEPES/100 mm plate. Saturation binding assays were performed in triplicate. Nonselective binding was determined using 10 μM naltrexone. Assays were incubated at room temperature for 90 minutes in a total binding volume of 0.5 mL and were terminated by filtration through a Whatman GF/B filter that had been presoaked in 0.25% poly(ethyleneimine) immediately prior to filtration. Filters were washed three times with 4 mL of ice-cold 25 mM HEPES buffer, and scintillation counting was performed with a Beckman 3801 LS Scintillation Counter. Protein concentrations were determined by the method of Bradford, see Bradford, M. M. A Rapid and Selective Method for the Quantitation of Microgram Quantities of Protein utilizing the Principle of Protein-dye Binding. Anal. Biochem. 1976, 72, 248–254. Raw binding data was analyzed with RADLIG and LIGAND (G. A. McPherson, Biosoft, Cambridge, UK). Inhibition constants (Ki) were determined from IC50 values with the Cheng-Prusoff equation, see Cheng, Y. C.; Prusoff, W. H.; Relationship between the inhibition Constant (Ki) and the concentration of inhibitor which causes 50 per cent inhibition (I50) of an enzymatic reaction. Biochem. Pharmacol. 1973, 22, 3099–3108.
As summarized in Table 2, receptor binding was determined in triplicate using [^3H]diprenorphine on HEK-293 cells that were transiently transfected with plasmids encoding rat kappa-, rat mu-, or mouse delta-opioid receptors. […] The results are consistent with the kappa agonist selectivity of compound 4b observed in the GPI. […] Binding to mu receptors was uniformly low for all regioisomers.

[4] = target: T3, rat kappa-opioid receptor (Rattus norvegicus, UniProt P34975); assay: [3H]diprenorphine binding on transiently transfected HEK-293 cells, kappa; conditions: for Ki: [3H]diprenorphine, HEK-293 cells, rat kappa receptor, read-out: Ki κ
T3 construct: expressed in transfected cells; host or cells: HEK-293 (transient, calcium phosphate)
Protocol: as §2, §3
(§4) As summarized in Table 2, receptor binding was determined in triplicate using [^3H]diprenorphine on HEK-293 cells that were transiently transfected with plasmids encoding rat kappa-, rat mu-, or mouse delta-opioid receptors.

[5] = target: T4, rat mu-opioid receptor (Rattus norvegicus, UniProt P33535); assay: [3H]diprenorphine binding on transiently transfected HEK-293 cells, mu; conditions: for Ki: [3H]diprenorphine, HEK-293 cells, rat mu receptor, read-out: Ki μ
T4 construct: expressed in transfected cells; host or cells: HEK-293 (transient, calcium phosphate)
Protocol: as §2, §3, §4

[6] = target: T5, delta opioid receptor (Mus musculus, UniProt P32300); assay: Antagonism of DADLE in the mouse vas-deferens (MVD) preparation; assay type: cell-based; conditions: for DADLE (δ) IC50 ratio: MVD, antagonist tested at 100 nM, mean ± SEM (n); for delta opioid receptor antagonist activity (in words): smooth muscle preparations
T5 construct: and the mouse vas-deferens (MVD); from tissue; host or cells: mouse vas deferens
Protocol: as §1

[7] = system: mouse vas-deferens (MVD); assay: Agonist activity in the MVD assay; assay type: cell-based; conditions: at 1 μM
Protocol: as §1, with “Concentration-response curves were obtained in the absence (control) and presence of the antagonist in the same preparation.” left out

[8] = system: guinea-pig ileal longitudinal muscle (GPI); assay: Agonist activity in the GPI assay (concentration-response compared to morphine, reversal by antagonists); assay type: cell-based
Protocol: as §1

T4 sequence (P33535 whole entry): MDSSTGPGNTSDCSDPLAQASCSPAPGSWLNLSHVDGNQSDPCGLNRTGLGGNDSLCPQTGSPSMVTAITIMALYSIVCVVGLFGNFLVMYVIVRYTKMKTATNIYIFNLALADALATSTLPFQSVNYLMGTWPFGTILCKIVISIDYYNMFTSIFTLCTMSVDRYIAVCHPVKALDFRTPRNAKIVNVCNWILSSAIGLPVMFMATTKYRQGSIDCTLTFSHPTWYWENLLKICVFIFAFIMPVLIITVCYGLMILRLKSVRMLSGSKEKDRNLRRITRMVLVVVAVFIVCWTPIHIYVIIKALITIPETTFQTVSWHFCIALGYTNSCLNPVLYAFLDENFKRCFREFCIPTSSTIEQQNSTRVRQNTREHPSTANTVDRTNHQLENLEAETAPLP
T2 sequence (P32300 whole entry): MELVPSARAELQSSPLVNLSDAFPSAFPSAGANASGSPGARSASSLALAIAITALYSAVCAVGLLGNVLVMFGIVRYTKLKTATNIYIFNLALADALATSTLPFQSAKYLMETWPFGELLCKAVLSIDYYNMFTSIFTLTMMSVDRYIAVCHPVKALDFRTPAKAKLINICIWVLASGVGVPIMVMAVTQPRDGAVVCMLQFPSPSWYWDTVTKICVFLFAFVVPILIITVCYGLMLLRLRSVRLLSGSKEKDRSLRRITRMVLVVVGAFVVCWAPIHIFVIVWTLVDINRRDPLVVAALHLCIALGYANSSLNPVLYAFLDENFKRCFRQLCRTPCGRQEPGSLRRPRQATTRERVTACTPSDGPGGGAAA
T5 sequence (P32300 whole entry): as above
T1 sequence (P41144 whole entry): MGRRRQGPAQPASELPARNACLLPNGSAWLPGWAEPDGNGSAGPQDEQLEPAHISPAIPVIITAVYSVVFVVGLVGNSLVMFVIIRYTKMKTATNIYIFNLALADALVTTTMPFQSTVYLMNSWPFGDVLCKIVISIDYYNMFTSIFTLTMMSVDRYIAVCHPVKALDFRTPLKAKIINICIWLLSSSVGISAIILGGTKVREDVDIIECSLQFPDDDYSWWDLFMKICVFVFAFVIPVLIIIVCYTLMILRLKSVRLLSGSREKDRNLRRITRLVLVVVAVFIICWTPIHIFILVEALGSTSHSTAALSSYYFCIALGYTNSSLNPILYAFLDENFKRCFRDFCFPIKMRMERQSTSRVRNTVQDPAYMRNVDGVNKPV
T3 sequence (P34975 whole entry): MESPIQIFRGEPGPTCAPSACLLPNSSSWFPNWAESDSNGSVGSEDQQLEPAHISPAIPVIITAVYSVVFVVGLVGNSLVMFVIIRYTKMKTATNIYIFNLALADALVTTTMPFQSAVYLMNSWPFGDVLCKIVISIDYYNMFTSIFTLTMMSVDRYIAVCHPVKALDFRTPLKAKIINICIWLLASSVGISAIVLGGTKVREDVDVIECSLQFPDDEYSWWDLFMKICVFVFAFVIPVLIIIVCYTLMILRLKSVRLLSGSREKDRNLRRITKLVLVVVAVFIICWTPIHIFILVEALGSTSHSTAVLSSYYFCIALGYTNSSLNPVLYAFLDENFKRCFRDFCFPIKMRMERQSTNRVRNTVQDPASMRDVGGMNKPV

Compound: Oc1ccc2c3c1O[C@H]1c4[nH]c5c(c4C[C@@]4(O)[C@@H](C2)N(CC2CC2)CC[C@]314)C[C@@]1(O)[C@H]2Cc3ccc(O)c4c3[C@@]1(CCN2CC1CC1)[C@H]5O4 [Compound 1, Norbinaltorphimine, reference compound]
- M (μ) Ke [1]: 12.5 nM
- Kb ([2]; GPI preparation, agonist ethylketazocine, Ke derived from IC50 ratio, read-out: EK (κ) Ke): 0.41 nM

Compound: N=C(N)Nc1ccc2[nH]c3c(c2c1)C[C@@]1(O)[C@H]2Cc4ccc(O)c5c4[C@@]1(CCN2CC1CC1)[C@H]3O5 [Compound 3, 5′-Guanidino-17-(cyclopropylmethyl)-6,7-didehydro-4,5α-epoxy-3,14-hydroxyindolo-[2′,3′:6,7]morphinian, reference compound]
- Ki [3]: 24.8 ± 11.3 nM
- Kb [2]: 0.16 nM
- kappa antagonist potency relative to norBNI 1 ([2]; smooth muscle preparations): approximately four-fold
- kappa opioid receptor antagonist activity (in words) ([2]; smooth muscle preparations): highly potent and selective kappa opioid receptor antagonist
- Ki [4]: 0.14 ± 0.03 nM
- affinity for the kappa receptor relative to mu and delta receptors ([4]; cloned receptors, HEK-293): greater than two orders of magnitude
- Ki [5]: 99.7 ± 8.7 nM

Compound: N=C(N)Nc1cccc2[nH]c3c(c12)C[C@@]1(O)[C@H]2Cc4ccc(O)c5c4[C@@]1(CCN2CC1CC1)[C@H]3O5 [Compound 4a, 4′-Guanidino-17-(cyclopropylmethyl)-6,7-didehydro-4,5α-epoxy-3,14-hydroxyindolo-[2′,3′:6,7]morphinian]
- M (μ) IC50 ratio [1]: 0.34 (2)
- mu opioid receptor antagonist activity (in words) [1]: virtually inactive
- binding to delta receptor (in words) [3]: eliminated binding
- Kb [2]: 80 nM
- EK (κ) IC50 ratio [2]: 2.3 (2)
- kappa opioid receptor antagonist activity (in words) ([2]; smooth muscle preparations): virtually inactive
- binding to kappa receptor (in words) ([4]; cloned receptors, HEK-293): eliminated binding
- binding to mu receptor (in words) ([5]; cloned receptors, HEK-293): eliminated binding
- Kb [6]: 263 nM
- DADLE (δ) IC50 ratio [6]: 1.4 (2)
- delta opioid receptor antagonist activity (in words) [6]: virtually inactive

Compound: N=C(N)Nc1ccc2c3c([nH]c2c1)[C@@H]1Oc2c(O)ccc4c2[C@@]12CCN(CC1CC1)[C@H](C4)[C@]2(O)C3 [Compound 4b, 6′-Guanidino-17-(cyclopropylmethyl)-6,7-didehydro-4,5α-epoxy-3,14-hydroxyindolo-[2′,3′:6,7]morphinian]
- agonist activity in MVD assay [7]: inactive as an agonist
- agonist potency relative to that of morphine ([8]; GPI assay, FIG. 5): 51 fold
- agonist activity and selectivity (in words) ([8]; GPI assay, with MVD results): kappa-selective agonist
- reversal of the agonist effect by naltrexone ([8]; GPI, naltrexone 500 nM): only partially reversed
- reversal of the agonist effect by norBNI ([8]; GPI, norBNI 20 nM): completely reversed
- Ki [3]: 20.3 ± 6.7 nM
- Ki [4]: 1.15 ± 0.39 nM
- affinity for kappa receptors relative to GNTI ([4]; cloned receptors, HEK-293): one-tenth
- binding to kappa receptor (in words) ([4]; cloned receptors, HEK-293): kappa-selective
- Ki [5]: 81.8 ± 20.7 nM

Compound: N=C(N)Nc1cccc2c3c([nH]c12)[C@@H]1Oc2c(O)ccc4c2[C@@]12CCN(CC1CC1)[C@H](C4)[C@]2(O)C3 [Compound 4c, 7′-Guanidino-17-(cyclopropylmethyl)-6,7-didehydro-4,5α-epoxy-3,14-hydroxyindolo-[2′,3′:6,7]morphinian]
- M (μ) Ke [1]: 238 nM
- M (μ) IC50 ratio [1]: 1.4 ± 0.9 (3)
- mu opioid receptor antagonist activity (in words) [1]: inactive
- Ki [3]: 2.75 ± 0.48 nM
- binding to delta receptor (in words) [3]: delta selectivity
- Kb [2]: 100 nM
- EK (κ) IC50 ratio [2]: 2.0 (2)
- kappa opioid receptor antagonist activity (in words) ([2]; smooth muscle preparations): inactive
- Ki [4]: 69.1 ± 25 nM
- Ki [5]: 181 ± 20 nM
- Kb [6]: 0.96 nM
- DADLE (δ) IC50 ratio [6]: 105 ± 30 (4)
- delta opioid receptor antagonist activity (in words) [6]: potent delta opioid receptor antagonist
